The results in this text go back to patent publication US20230110128A1, “USE OF ANTIBODY DRUG CONJUGATES COMPRISING TUBULIN DISRUPTING AGENTS TO TREAT SOLID TUMOR” (Seagen Inc., priority 2018, published 2023).

In assay [1] the test system is MCF7 breast cancer cells. Description: Western blot analysis of ER stress response in MCF7 cells. It is filed as cell-based. Particulars: FIG. 16A. As to the method: MCF7 breast cancer cells were treated with 100 nM MMAE for 16 hours and harvested RIPA buffer for western blot analysis.
MCF7 cells were treated with MMAE or an MMAE-containing ADC (SGN-LIV1A) for 16 hours and harvested in […] for western bot analysis. […] Induction of ICD is also characterized by the secretion of ATP and HMGB1. Extracellular ATP serves as a strong chemotactic signal, promoting immune cell migration to the tumor site. Upon arrival, extracellular HMGB1 signals through various pro-inflammatory receptors (TLR2, TLR4, RAGE) to activate antigen-presenting cells, thereby promoting immune activity within the tumor.
(Immunoblotting shows a protein as a band on a membrane.)

The subject of assay [2] is MCF7 cells. As to the kind of experiment: ATP secretion from MCF7 cells. Type of assay: cell-based. The note with it: after 48 hours of treatment.
Assay [3] has as its system BxPC-3 cells. Description: ATP secretion from BxPC-3 cells. Type of assay: cell-based. Particulars: 17 hours.
In assay [4] the test system is HeLa cervical cancer cells. As to the kind of experiment: Western blot analysis of ER stress in HeLa cells. Type of assay: cell-based. Particulars: 1000 nM or 100 nM, 16 hours. As to the method:
HeLa cervical cancer cells were treated with 1000 nM or 100 nM MMAE, Vincristine, or Paclitaxel for 16 hours and harvested for western blot analysis.

In assay [5] the test system is MiaPaca-CHOP-luciferase cells subcutaneously engrafted. Description: Tumoral CHOP luciferase signal in engrafted MiaPaca-CHOP-luciferase tumors. Type of assay: in vivo, NOD/SCID/gamma-chain deficient mice. The note with it: intratumorally; MMAE 0.36 mg/kg, vincristine 1.0 mg/kg, Paclitaxel 10 mg/kg. As to the method: MiaPaca-CHOP-luciferase cells were subcutaneously engrafted into NOD/SCID/gamma-chain deficient mice. Subcutaneous tumors were treated intratumorally with MMAE (0.36 mg/kg), vincristine (1.0 mg/kg), and Paclitaxel (10 mg/kg) and tumoral luciferase signal was monitored over time.

The subject of assay [6] is PC-3 prostate tumor cells. As to the kind of experiment: ATP secretion from PC-3 cells. It is filed as cell-based. Particulars: supernatant after 16 hours. As to the method:
PC-3 prostate tumor cells were also treated with MMAE, Vincristine, or Paclitaxel. Supernatant was collected after 16 hours of treatment, and analyzed for ATP secretion. […] PC-3 cells were treated for 24 hours with an MMAE-containing ADC (SGN-LIV1A) or MMAE and harvested in RIPA buffer for western blot analysis (FIG. 3C).

In assay [7] the test system is A2058, SK-MEL-5, SK-MEL-28, Calu-1, HT-1080, SK-MES-1 and BXPC3 cells. Description: ATP secretion in a panel of solid tumor cell lines. Type of assay: cell-based. Particulars: 7 cell lines, supernatant after 17 hours. The method, then:
(§1) Skin tumor lines A2058, SK-MEL-5 and SK-MEL-28, Calu-1 (lung), HT-1080 (fibrosarcoma), SK-MES-1 (lung), and BXPC3 (pancreas) cells were treated with MMAE, vincristine, and Paclitaxel. Supernatant was collected after 17 hours of treatment, and analyzed for ATP secretion.

In assay [8] the test system is MiaPaca-CHOP-luciferase cells. As to the kind of experiment: CHOP-driven luciferase reporter assay of severe ER stress. It is filed as cell-based. The note with it: after 16 hours. The method, then: Severe ER stress leads to upregulation of CHOP, and initiates mitochondrial apoptosis. MiaPaca2 pancreatic tumor cells were engineered to express a CHOP-driven luciferase reporter system (purchased from Signosis, Inc.) that allows for quantifiable monitoring of severe ER stress. MiaPaca-CHOP-luciferase cells were treated with MMAE, vincristine, and Paclitaxel, and assayed for luciferase expression after 16 hours.
(In general: A reporter such as luciferase makes a cellular process visible.)

The subject of assay [9] is BxPC3 and HPAFII (pancreas) cells co-cultured with macrophages. Description: Macrophage antigen presentation after co-culture with treated pancreas tumor cells. Particulars: BxPC3 and HPAFII treated 24 hours; macrophages harvested 4 days after co-culture. It is filed as cell-based. The method, then: Macrophages were enriched from PBMCs from 2 healthy donors by adhering PBMCs to cell culture-grade plastic. Non-adherent cells were removed 24 hours later, leaving a population of cells enriched for macrophages.
BxPC3 and HPAFII (pancreas) cells were treated with MMAE, vincristine, and Paclitaxel for 24 hours. Cells were washed and harvested, and subsequently co-cultured with the enriched macrophages prepared above. Macrophages were harvested 4 days after co-culture and assayed for immune activation by flow cytometry. Level of antigen-presentation (as measured by frequency of MHCII-expressing cells) was quantified and normalized to macrophages that were co-cultured with untreated tumor cells.

For assay [10], the system named is T-24 cells co-cultured with macrophages. Description: Macrophage antigen presentation after co-culture with treated T-24 cells. It is filed as cell-based. The note with it: T-24 treated 24 hours; macrophages harvested 4 days after co-culture. The method, then:
(§2) T-24 (bladder) cells were treated with MMAE or an MMAE-containing ADC (ASG-22ME) for 48 hours and analyzed for ATP secretion. […] T-24 cells were also treated with MMAE, an MMAE-containing ADC (ASG22ME, Enfortumab vedotin), vincristine, and Paclitaxel for 24 hours. Cells were washed and harvested, and subsequently co-cultured with the enriched macrophages as above. Macrophages were harvested 4 days after co-culture and assayed for immune activation by flow cytometry. Level of antigen-presentation (as measured by frequency of MHCII-expressing macrophages) was quantified and normalized to macrophages that were co-cultured with untreated tumor cells. […] Supernatant from the co-culture of macrophages and dying T-24 tumor cells was harvested after 24 hours and assayed for levels of cytokine and chemokine production by ELISA and normalized to macrophages that were co-cultured with untreated tumor cells.

Assay [11] relates to T-24 (bladder) cells. As to the kind of experiment: ATP secretion from T-24 cells. Type of assay: cell-based. The note with it: 48 hours. As to the method: as §2
Assay [12] concerns MDA-MB-468 cells. Description: ATP secretion from MDA-MB-468 cells. Type of assay: cell-based. The note with it: supernatant after 48 hours. The method, then: MDA-MB-468 cells were treated with MMAE or an MMAE-containing ADC (ASG-22ME). Supernatant was collected after 48 hours of treatment, and analyzed for ATP secretion.
In assay [13] the test system is T-24 tumor cells co-cultured with macrophages. As to the kind of experiment: Cytokine and chemokine production in macrophage co-culture with treated T-24 cells. Type of assay: cell-based. Particulars: T-24 co-culture supernatant after 24 hours, ELISA, normalized to untreated. As to the method:
as §2
A general note: ELISA stands for enzyme-linked immunosorbent assay.

The test system of assay [14] is A2058, SK-MEL-5, SK-MEL-28, Calu-1, HT-1080, SK-MES-1, BXPC3 and HPAFII cells. As to the kind of experiment: HMGB1 release by ELISA in a panel of solid tumor cell lines. Type of assay: cell-based. The note with it: supernatant after one night of treatment. The method, then:
A2058, SK-MEL-5, SK-MEL-28 (skin), Calu-1, HT-1080, SK-MES-1 (lung), and BXPC3 and HPAFII (pancreas) cells were treated with an MMAE-containing ADC (e.g., anti-p97-MMAE or anti-CD71-MMAE) or Paclitaxel. Supernatant was collected after one night of treatment, and analyzed for HMGB1 release by ELISA. […] See, e.g., FIG. 70 and additional description below.

Assay [15] concerns MiaPaca2 cells. As to the kind of experiment: ATP secretion from MiaPaca2 cells. The note with it: supernatant after 16 hours. It is filed as cell-based. As to the method:
MiaPaca2 cells were treated with MMAE, Vincristine, or Paclitaxel. Supernatant was collected after 16 hours of treatment, and analyzed for ATP secretion.

Assay [16] has as its system A2058, SK-MEL-5, SK-MEL-28 (skin) cell lines. As to the kind of experiment: ATP secretion in skin cell lines. The note with it: A2058, SK-MEL-5, SK-MEL-28, after 17 hours. Type of assay: cell-based. The method, then:
as §1

Assay [17] relates to Hep3b, Huh7, and JHH7 cells. As to the kind of experiment: ATP secretion from liver tumor lines. Type of assay: cell-based. The note with it: Huh7, JHH7, 24 hours. As to the method:
(§3) Liver tumor lines Hep3b, Huh7, and JHH7 cells were treated with MMAE, Tubulysin M, vincristine, and Paclitaxel for 24 hours and analyzed for ATP secretion. […] Cells were washed and harvested, and subsequently co-cultured with enriched macrophages prepared as above. Macrophages were harvested 4 days after co-culture and assayed for immune activation by flow cytometry. Levels of costimulation (as measured by CD86 expression, JHH7) and antigen-presentation (as measured by frequency of MHCII-expressing cells, Hep3b, Huh7, and JHH7) were quantified and normalized to macrophages that were co-cultured with […]. […] Supernatant from the co-culture of macrophages and dying liver tumor cells was harvested 24 hours later and assayed for levels of cytokine and chemokine production by ELISA and normalized to macrophages that were co-cultured with untreated tumor cells.

The subject of assay [18] is Hep3b, Huh7, and JHH7 cells co-cultured with macrophages. As to the kind of experiment: Cytokine and chemokine production in macrophage co-culture with treated liver tumor cells. It is filed as cell-based. Particulars: Huh7, JHH7 co-culture supernatant 24 hours, ELISA, normalized to untreated. The method, then: as §3

Regarding `C=C1C[C@@H]2CC[C@@]34C[C@H]5O[C@H]6[C@@H](O3)[C@H]3O[C@H](CC[C@@H]3O[C@H]6[C@H]5O4)CC(=O)C[C@@H]3[C@@H](OC)[C@@H](C[C@H](O)CN)O[C@H]3C[C@H]3O[C@@H](CC[C@@H]1O2)C[C@@H](C)C3=C` [eribulin, reference compound], in assay [1], the “Severe ER stress (phosphorylation of IRE1 and JNK)” value was “elicits severe ER stress (phosphorylation of IRE1 and JNK)”. Moreover, the ATP secretion result in assay [2] is on record as “Increased AIR secretion”.
Regarding `CC[C@]1(O)C[C@H]2CN(CCc3c([nH]c4ccccc34)[C@@](C(=O)OC)(c3cc4c(cc3OC)N(C=O)[C@H]3[C@@](O)(C(=O)OC)[C@H](OC(C)=O)[C@]5(CC)C=CCN6CC[C@]43[C@@H]65)C2)C1` [vincristine], the ATP secretion result in [3] is “equivalent levels of ATP secretion”. Moreover, the “ER stress responses (phosphorylation of IRE1)” value in assay [4] is “activated ER stress responses”. For the same molecule, the “Severe ER stress in engrafted tumors (tumoral luciferase signal over time)” value in [5] is listed as “rapidly elicited severe ER stress”. The ATP secretion entry in assay [6] is on record as “robust ATP secretion”. In addition, in assay [7], the “ATP secretion (cell lines responding)” value is “ATP secretion in most of the cell lines assayed (6/7)” and the “ATP secretion response compared with Paclitaxel” value is reported as “more robust response than Paclitaxel in all cell lines assayed”. In addition, the “Luciferase signal as a proxy of severe ER stress induction” value in assay [8] is “dose-dependent increase in luciferase signal”. Further, the “Antigen-presentation (frequency of MHCII-expressing cells)” value in [9] was “increase in antigen-presentation in 1/2 tumor cell lines”.
As for ASG-22ME, the “Macrophage antigen presentation (frequency of MHCII-expressing macrophages)” value in assay [10] was “increase in macrophage antigen presentation that was more robust than treatment with Paclitaxel”. Also, the ATP secretion result is given as “potent ATP secretion” in assay [11] and “robust ATP secretion that was comparable to thapsigargin” in assay [12]. In addition, the “Cytokine and chemokine production” value in assay [13] was “increase of the indicated cytokines and chemokines that was more robust than treatment with Paclitaxel”.
As to `CC(=O)O[C@H]1C(=O)[C@@]2(C)[C@H]([C@H](OC(=O)c3ccccc3)[C@]3(O)C[C@H](OC(=O)[C@H](O)[C@@H](NC(=O)c4ccccc4)c4ccccc4)C(C)=C1C3(C)C)[C@]1(OC(C)=O)CO[C@@H]1C[C@@H]2O` [Paclitaxel, paclitaxel], the “HMGB1 release (cell lines responding)” value in assay [14] is “HMGB1 release in most of the cell lines assayed (5/7)”. In addition, the ATP secretion result in assay [3] is listed as “equivalent levels of ATP secretion”; in [15] it was “modest ATP secretion”; in assay [6] it was “modest ATP secretion”; in assay [2], “neither Paclitaxel nor Docetaxel elicited ATP secretion”. Further, in assay [4], the “ER stress responses (phosphorylation of IRE1)” value is reported as “activated ER stress responses”. The “Severe ER stress response (phosphorylation of JNK)” value in assay [4] is on record as “Robust JNK phosphorylation was not seen with lower doses”. The “Severe ER stress (phosphorylation of IRE1 and JNK)” value in assay [1] is recorded as “do not elicit JNK phosphorylation”. Also, the “Severe ER stress in engrafted tumors (tumoral luciferase signal over time)” value in assay [5] is “does not induce ER stress”. For the same molecule, in assay [16], the “ATP secretion (skin cell lines responding)” value is recorded as “ATP secretion from only 1 of 3 cell lines”. Moreover, the “Luciferase signal as a proxy of severe ER stress induction” value in assay [8] is reported as “modest luciferase signal at the peak doses”. The “Antigen-presentation (frequency of MHCII-expressing cells)” value in assay [9] is recorded as “did not lead to changes in macrophage antigen-presentation”.
For `CC[C@H](C)[C@H](NC(=O)[C@H]1CCCCN1C)C(=O)N(C)[C@H](C[C@@H](OC(C)=O)c1nc(C(=O)N[C@@H](Cc2ccccc2)C[C@H](C)C(=O)O)cs1)C(C)C` [Tubulysin M, tubulysin M, reference compound], in [17], the “ATP secretion (cell lines responding)” value was “potent ATP secretion from 3 of 3 cell lines evaluated”. For the same molecule, the “Cytokine and chemokine production” value in [18] was “increase of the indicated cytokines and chemokines that was more robust than treatment with Paclitaxel”.
On to `CC(=O)O[C@@]12CO[C@@H]1C[C@H](O)[C@@]1(C)C(=O)[C@H](O)C3=C(C)[C@@H](OC(=O)[C@H](O)[C@@H](NC(=O)OC(C)(C)C)c4ccccc4)C[C@@](O)([C@@H](OC(=O)c4ccccc4)[C@H]21)C3(C)C` [Docetaxel, docetaxel, reference compound], for which the “Severe ER stress (phosphorylation of IRE1 and JNK)” value in assay [1] is reported as “do not elicit JNK phosphorylation”. The ATP secretion result in [2] is given as “neither Paclitaxel nor Docetaxel elicited ATP secretion”.
